Data taken from the OligoGym collection.
After the bases stand the sugars from the 5' end (letter, count) and the backbone: PS all phosphorothioate, else s phosphorothioate and o phosphodiester by linkage. Methylation of C is not given here. e = 2'-O-(2-methoxyethyl) (MOE); k = constrained ethyl (cEt); d = 2'-deoxy (DNA); m = 2'-O-methyl

Biological target: HSD17B13
Details: ASO, HepaRG

## GGTCCATTGTTTCTTA (sugars k3 d10 k3, PS)
1 µM
  target mRNA inhibition: 36%

## GGTGCTGAGAAGATCG (sugars k3 d10 k3, PS)
1 µM
  target mRNA inhibition: 33%

## GGTTCAGTCCTTGTGT (sugars k3 d10 k3, PS)
1 µM
  target mRNA inhibition: 57%

## GTAAAATTATGCCTTG (sugars k3 d10 k3, PS)
1 µM
  target mRNA inhibition: 50%

## GTAAAGGCTGGGTGAG (sugars k3 d10 k3, PS)
1 µM
  target mRNA inhibition: 41%

## GTAACGGTGATCAAAT (sugars k3 d10 k3, PS)
1 µM
  target mRNA inhibition: 34%

## GTAAGGAATCCCTTCG (sugars k3 d10 k3, PS)
1 µM
  target mRNA inhibition: 22%

## GTAATAGCCAGTACAG (sugars kkdddddddddkekek, PS)
1 µM
  target mRNA inhibition: 47%

## GTAGCTTTTGTCCACC (sugars k3 d9 k3 e1, PS)
1 µM
  target mRNA inhibition: 67%

## GTAGTCCTAGGGAGGA (sugars k3 d10 k3, PS)
0.02 µM
  target mRNA inhibition: 20%
0.078 µM
  target mRNA inhibition: 50%
0.313 µM
  target mRNA inhibition: 62%
1 µM
  target mRNA inhibition: 77%
1.25 µM
  target mRNA inhibition: 75%
5 µM
  target mRNA inhibition: 86%

## GTATCATTTGGCTTAA (sugars k3 d10 k3, PS)
1 µM
  target mRNA inhibition: 29%

## GTATCTTATAAGACTA (sugars k3 d1 m1 d8 k3, PS)
0.02 µM
  target mRNA inhibition: 13%
0.078 µM
  target mRNA inhibition: 26%
0.313 µM
  target mRNA inhibition: 39%
1 µM
  target mRNA inhibition: 79%
1.25 µM
  target mRNA inhibition: 66%
5 µM
  target mRNA inhibition: 84%

## GTATCTTATAAGACTA (sugars k3 d10 k3, PS)
0.02 µM
  target mRNA inhibition: 50%
0.078 µM
  target mRNA inhibition: 61%
0.313 µM
  target mRNA inhibition: 68%
1 µM
  target mRNA inhibition: 81%
1.25 µM
  target mRNA inhibition: 87%
5 µM
  target mRNA inhibition: 95%

## GTATCTTATAAGACTA (sugars kkdddddddddkekek, PS)
1 µM
  target mRNA inhibition: 61%

## GTATTCCATAAAGCTG (sugars k3 d10 k3, PS)
1 µM
  target mRNA inhibition: 10%

## GTATTCCATCTATCAG (sugars k3 d9 k3 e1, PS)
1 µM
  target mRNA inhibition: 51%

## GTATTTACTTTTAGGG (sugars k3 d10 k3, PS)
1 µM
  target mRNA inhibition: 61%

## GTATUCCATCTATCAG (sugars k3 d1 m1 d8 k3, PS)
1 µM
  target mRNA inhibition: 41%

## GTCACCTTTCATAATG (sugars k3 d9 k3 e1, PS)
1 µM
  target mRNA inhibition: 21%

## GTCACCTTTCATAATG (sugars k3 d10 k3, PS)
1 µM
  target mRNA inhibition: 45%

## GTCAGTAGAGAGCATA (sugars k3 d10 k3, PS)
0.02 µM
  target mRNA inhibition: 0%
0.078 µM
  target mRNA inhibition: 0%
0.313 µM
  target mRNA inhibition: 27%
1 µM
  target mRNA inhibition: 85%
1.25 µM
  target mRNA inhibition: 78%
5 µM
  target mRNA inhibition: 74%

## GTCCAAAAGTGTCCTC (sugars k3 d10 k3, PS)
1 µM
  target mRNA inhibition: 35%

## GTCCACTTTTGGTGGA (sugars k3 d10 k3, PS)
1 µM
  target mRNA inhibition: 14%

## GTCCTTTGTATTTCGC (sugars k3 d10 k3, PS)
1 µM
  target mRNA inhibition: 45%

## GTCGGTCACCTTTCAT (sugars k3 d9 k3 e1, PS)
1 µM
  target mRNA inhibition: 68%

## GTCTAAACATCTCTGG (sugars k3 d10 k3, PS)
1 µM
  target mRNA inhibition: 58%

## GTCTACCTCTAAGTTA (sugars kkdddddddddkekek, PS)
1 µM
  target mRNA inhibition: 15%

## GTCTGCCTGCCTATTC (sugars k3 d10 k3, PS)
1 µM
  target mRNA inhibition: 53%

## GTGCATCTTAAGATAC (sugars k3 d1 m1 d8 k3, PS)
1 µM
  target mRNA inhibition: 40%

## GTGCCAAACCAATGTT (sugars k3 d9 k3 e1, PS)
1 µM
  target mRNA inhibition: 56%

## GTGCTAAGTAGTAATT (sugars k3 d10 k3, PS)
1 µM
  target mRNA inhibition: 58%

## GTGGATTACATACAAG (sugars k3 d10 k3, PS)
1 µM
  target mRNA inhibition: 57%

## GTGGCATGGCTACAGA (sugars k3 d1 m1 d8 k3, PS)
1 µM
  target mRNA inhibition: 49%

## GTGTAAATAAGTTCTC (sugars k3 d10 k3, PS)
1 µM
  target mRNA inhibition: 61%

## GTTAAAACTTCATTCC (sugars k3 d10 k3, PS)
1 µM
  target mRNA inhibition: 5%

## GTTAACCTGCAGCAGA (sugars k3 d10 k3, PS)
1 µM
  target mRNA inhibition: 51%

## GTTACATCACCCACTT (sugars k3 d10 k3, PS)
1 µM
  target mRNA inhibition: 41%

## GTTAGAATAGTCTTCA (sugars k3 d1 m1 d8 k3, PS)
1 µM
  target mRNA inhibition: 42%

## GTTAGCAAAACACTTG (sugars k3 d10 k3, PS)
0.02 µM
  target mRNA inhibition: 1%
0.078 µM
  target mRNA inhibition: 15%
0.313 µM
  target mRNA inhibition: 44%
1 µM
  target mRNA inhibition: 71%
1.25 µM
  target mRNA inhibition: 68%
5 µM
  target mRNA inhibition: 81%

## GTTAGTATAGTTATCT (sugars k3 d1 m1 d8 k3, PS)
1 µM
  target mRNA inhibition: 52%

## GTTAGTATAGTTATCT (sugars k3 d9 k3 e1, PS)
1 µM
  target mRNA inhibition: 71%

## GTTAGTATAGTTATCT (sugars k3 d10 k3, PS)
0.02 µM
  target mRNA inhibition: 0%
0.078 µM
  target mRNA inhibition: 17%
0.313 µM
  target mRNA inhibition: 40%
1 µM
  target mRNA inhibition: 66%
1.25 µM
  target mRNA inhibition: 74%
5 µM
  target mRNA inhibition: 86%

## GTTATTCTCTTGACAA (sugars k3 d10 k3, PS)
1 µM
  target mRNA inhibition: 42%

## GTTCTGATGTCAGACC (sugars k3 d10 k3, PS)
1 µM
  target mRNA inhibition: 55%

## GTTCTTGTTGATATTC (sugars k3 d10 k3, PS)
0.02 µM
  target mRNA inhibition: 35%
0.078 µM
  target mRNA inhibition: 51%
0.313 µM
  target mRNA inhibition: 77%
1 µM
  target mRNA inhibition: 84%
1.25 µM
  target mRNA inhibition: 92%
5 µM
  target mRNA inhibition: 96%

## GTTCTTGTTGATATTC (sugars kkdddddddddkekek, PS)
1 µM
  target mRNA inhibition: 66%

## GTTCUTGTTGATATTC (sugars k3 d1 m1 d8 k3, PS)
1 µM
  target mRNA inhibition: 70%

## GTTGACCTCAAATGTC (sugars k3 d10 k3, PS)
1 µM
  target mRNA inhibition: 0%

## GTTGAGTAGTGTAAGC (sugars k3 d10 k3, PS)
1 µM
  target mRNA inhibition: 53%

## GTTGCACCGTTTTGGG (sugars k3 d9 k3 e1, PS)
1 µM
  target mRNA inhibition: 45%

## GTTGCACCGTTTTGGG (sugars k3 d10 k3, PS)
1 µM
  target mRNA inhibition: 56%

## GTTGTTAATGTAGTGT (sugars k3 d10 k3, PS)
0.02 µM
  target mRNA inhibition: 0%
0.078 µM
  target mRNA inhibition: 18%
0.313 µM
  target mRNA inhibition: 42%
1 µM
  target mRNA inhibition: 77%
1.25 µM
  target mRNA inhibition: 67%
5 µM
  target mRNA inhibition: 90%

## GTTTAACTTTCCTCCG (sugars k3 d10 k3, PS)
1 µM
  target mRNA inhibition: 30%

## GTTTACAAGTAAGAAC (sugars k3 d10 k3, PS)
1 µM
  target mRNA inhibition: 42%

## GTTTAGAAGTCAAACG (sugars k3 d10 k3, PS)
1 µM
  target mRNA inhibition: 0%

## GTTTAGCAATTTAGCA (sugars k3 d10 k3, PS)
1 µM
  target mRNA inhibition: 50%

## GTTTTATAACTGAGCT (sugars k3 d10 k3, PS)
0.02 µM
  target mRNA inhibition: 16%
0.078 µM
  target mRNA inhibition: 29%
0.313 µM
  target mRNA inhibition: 53%
1 µM
  target mRNA inhibition: 84%
1.25 µM
  target mRNA inhibition: 84%
5 µM
  target mRNA inhibition: 85%

## GTTTTGATACCAGTTT (sugars k3 d10 k3, PS)
1 µM
  target mRNA inhibition: 67%

## GTTTTGGGCTAATGAA (sugars k3 d9 k3 e1, PS)
1 µM
  target mRNA inhibition: 47%

## GTTTTGGGCTAATGAA (sugars k3 d10 k3, PS)
1 µM
  target mRNA inhibition: 54%

## GTTTTGGGCTAATGAA (sugars kkdddddddddkekek, PS)
1 µM
  target mRNA inhibition: 42%

## GTTTTTCTCTTGACAA (sugars k3 d10 k3, PS)
1 µM
  target mRNA inhibition: 59%

## TAAAATAGAGTCGGTC (sugars kkdddddddddkekek, PS)
1 µM
  target mRNA inhibition: 68%

## TAAACATCTCTGGGAC (sugars k3 d1 m1 d8 k3, PS)
1 µM
  target mRNA inhibition: 49%
